{"source": "patent US20250177405A1", "about": "“METHODS OF TREATING NEUROLOGICAL AND CARDIOVASCULAR CONDITIONS” (ASTROCYTE PHARMACEUTICALS, INC., priority 2021, published 2025)", "key": {"[1]": {"system": "cynomolgus monkey model of transient middle cerebral artery occlusion (tMCAO)", "assay": "transient middle cerebral artery occlusion (tMCAO) stroke model, MRI lesion and penumbra volume", "type": "in vivo, Macaca fascicularis", "conditions": "for overall DWI lesion volume smaller compared to vehicle: I-1 composite", "excerpt": "A total of 25 adult male Macaca fascicularis macaques were used in this study, with ages ranging from 47-83 months and weights ranging from 2.7-5.4 kg.\nUnder deep anesthesia, the right eyeball was removed, and the orbital content was dissected and excised using a surgical microscope (KOM300, Konan Medical Inc., Hogo, Japan). A window of approximately 10 mm in diameter was opened just anterior to the foramen of the optic canal at the base of the skull, allowing identification of the right middle cerebral artery (MCA) main trunk beneath the dura. After opening the dura mater, tMCAO was performed using 2 microvascular clips (Sugita TII, 17-001-81, Mizuho Medical, Tokyo, Japan), one on the proximal part of the main MCA trunk and the other on the distal-to-orbitofrontal brunch. Four hours after tMCAO, these clips were removed. After visual confirmation of recanalization of MCA blood flow, the burr hole was closed using Clearfil New Bond (Kuraray Noritake Dental, Inc., Tokyo, Japan) and the orbital cavity was closed according to best veterinary practice.\nTransorbital transient MCA occlusion (tMCAO) was performed using 2 microvascular clips, one placed on the proximal part of the main MCA trunk and the other on the distal-to-orbitofrontal branch (references 10, 11, 24). Four hours after MCA occlusion, these clips were removed for recanalization. After visual confirmation of restituted MCA blood flow, the burr hole was closed using Clearfil New Bond (Kuraray Noritake Dental, Inc., Tokyo, Japan) and the orbital cavity was closed according to best veterinary practice.\nSerial coronal magnetic resonance imaging (MRI) of the brain (3 mm slice thickness) was performed 0.5, 1.5, 1.8, 3.5, 6.0, 24 and 120 h post-occlusion. Imaging sequences were (i) diffusion-weighted imaging (DWI), arterial spin labeling (ASL), (ii) magnetic resonance angiography (MRA), and (iii) fluid-attenuated inversion-recovery (FLAIR) T2-weighted imaging. Apparent diffusion coefficient (ADC) maps, cerebral blood flow (CBF), and perfusion deficit were generated with FuncTool Performance (GE Healthcare, Milwaukee, WI, USA) available on the MRI scanner console. Inhibition of lesion volume was considered the primary efficacy endpoint. Penumbral volume (mm^3) was calculated by subtracting the lesion volume delineated from the DWI diffusion maps from the total calculated perfusion deficit.\nThe infarct (lesion) areas (mm^2) of each coronal image were marked using OsiriX version 8.0.2 (Pixmeo SARL, Bernex, Switzerland). The infarct was manually delineated using DWI maps. The lesion volume (mm^3) was calculated as the sum of the product of each section's infarct area and slice thickness (3 mm). […] The perfusion deficit (mm^3) was calculated from ASL maps as a reduction to <30% and <50% of the corresponding region of the contralateral side. […] Penumbral volume (mm^3) was calculated by subtracting the lesion volume delineated from the DWI diffusion maps from the total calculated perfusion deficit.\n(§1) Macaques received a bolus dose of vehicle (40% PEG400 in 0.9% saline) or I-1 into a saphenous vein 2 h after occlusion (2 h prior to restoration of MCA blood flow), followed immediately by a 22 h intravenous infusion. This dosing regimen was designed to rapidly achieve and maintain pre-determined plasma and cerebrospinal fluid (CSF) steady-state concentrations of I-1 based on its pharmacokinetics previously determined in näive and MCA occluded macaques (Tables A-C below)."}, "[2]": {"assay": "I-1 plasma and CSF concentrations during bolus/infusion regimen in tMCAO efficacy study", "type": "in vivo, Macaca fascicularis", "conditions": "for predicted I-1 [Plasma]: 22 h infusion; for Measured I-1 [CSF] / measured I-1 [Plasma]: 22 h, n = 4", "protocol": "as §1\nDuring MRI, vehicle or I-1 were infused into the saphenous vein via a syringe pump (TOP5500E, TOP Corp., Tokyo, Japan). Infusion following MRI was maintained via a portable, programmable IPRECIO® Dual infusion pump (DMP-100; Primetech Corp., Tokyo, Japan) ported into a jugular venous line, both being secured in a jacket. Methods for pharmacokinetic sampling and bioanalytical analysis of plasma and CSF are described below.\nBlood samples (1.0 mL) were withdrawn into heparinized tubes from either the opposite cephalic or the femoral vein at 3, 6, 24, 48, 72 hours and 5 days post-occlusion. Heparinized blood was centrifuged at 4° C. at 1,800×g for 10 min. In the same animals, 0.3-0.5 mL of cerebrospinal fluid (CSF) was withdrawn at 6 and 24 hours post-occlusion. Macaques were sedated with ketamine (10 mg/kg, i.m.), CSF was collected via puncture of the cisterna magna. Plasma and CSF samples were flash frozen in liquid nitrogen and then stored at −70 C until shipment for processing. Samples were shipped on dry ice. Plasma and CSF concentrations of I-1 were determined by LC/MS/MS utilizing standard curves (performed at the Department of Bio Research, Kamakura Techno-Science, Inc. Kanagawa, Japan). Lower limits of quantitation for compound I-1 were 1.0 ng/mL and 0.1 ng/mL for plasma and CSF, respectively."}, "[3]": {"assay": "physiological parameter assessment during tMCAO study", "type": "in vivo, Macaca fascicularis", "protocol": "Body weight, core body temperature, mean arterial blood pressure (MABP), heart rate, pO2, pCO2, sO2 and blood pH were assessed prior to and after tMCAO at designated intervals in relation to reported normal physiological ranges for each parameter (references 22-23)."}, "[4]": {"assay": "plasma protein binding (free fraction)", "type": "in vitro ADME", "conditions": "mouse", "excerpt": "(§2) Example 3 of U.S. Pat. No. 9,789,131, which is incorporated herein by reference, describes assays for determining the plasma and brain free fraction of certain compounds such as I-1. Compounds described herein may be evaluated using such assays or similar variants thereof."}, "[5]": {"assay": "brain tissue binding (free fraction)", "type": "in vitro ADME, mouse", "excerpt": "as §2"}, "[6]": {"conditions": "High dose group, 5.2 mg/kg, 2.8 mg/kg/h, mean ± SEM"}, "[7]": {"conditions": "Low dose group, 0.47 mg/kg, 0.25 mg/kg/h, mean ± SEM"}, "[8]": {"conditions": "Mid dose group, 1.7 mg/kg, 0.9 mg/kg/h, mean ± SEM"}}, "data": [{"smiles": "CSc1nc(N)c2ncn([C@H]3C(O)C(O)[C@]4(CO)C[C@H]34)c2n1", "note": "(stereo in doubt) [Compound I-1]", "values": [{"measurement": "lesion growth rate (slope of lesion growth) after treatment initiation", "setting": "[1]; 1.8-6.0 h post-occlusion, versus vehicle and pre-treatment, composite p=0.004", "value": "rapid decrease in lesion growth rate"}, {"measurement": "decrease in penumbra volume during the ischemic period", "setting": "[1]; I-1-treated composite (n=16), 0.5 h to 3.5 h post-occlusion, vehicle 71%, p=0.01", "value": 48, "unit": "%"}, {"measurement": "rate of penumbra volume decrease", "setting": "[1]; I-1-treated composite, vehicle 604.5 mm^3/h", "value": 296.0, "unit": "mm^3/h"}, {"measurement": "overall DWI lesion volume smaller compared to vehicle", "setting": "[1]; 24 h post-occlusion, p=0.07", "value": 20, "unit": "%"}, {"measurement": "overall DWI lesion volume smaller compared to vehicle", "setting": "[1]; 120 h post-occlusion, p=0.05", "value": 30, "unit": "%"}, {"measurement": "plasma I-1 after end of infusion", "setting": "[2]; 24 h following termination of Mid and High dose infusions", "value": "Measurable concentrations"}, {"measurement": "predicted I-1 [Plasma]", "setting": "[2]; High dose group, 5.2 mg/kg bolus, 2.8 mg/kg/h", "value": 1660, "unit": "ng/mL"}, {"measurement": "Measured I-1 [CSF]", "setting": "[2]; [6]", "value": "108 ± 35", "unit": "ng/mL"}, {"measurement": "measured I-1 [Plasma]", "setting": "[2]; [6]", "value": "1127 ± 246", "unit": "ng/mL"}, {"measurement": "predicted I-1 [Plasma]", "setting": "[2]; Low dose group, 0.47 mg/kg bolus, 0.25 mg/kg/h", "value": 150, "unit": "ng/mL"}, {"measurement": "Measured I-1 [CSF]", "setting": "[2]; [7]", "value": "8.8 ± 2.6", "unit": "ng/mL"}, {"measurement": "measured I-1 [Plasma]", "setting": "[2]; [7]", "value": "186 ± 24", "unit": "ng/mL"}, {"measurement": "predicted I-1 [Plasma]", "setting": "[2]; Mid dose group, 1.7 mg/kg bolus, 0.9 mg/kg/h", "value": 540, "unit": "ng/mL"}, {"measurement": "Measured I-1 [CSF]", "setting": "[2]; [8]", "value": "16.8 ± 5.7", "unit": "ng/mL"}, {"measurement": "measured I-1 [Plasma]", "setting": "[2]; [8]", "value": "483 ± 23", "unit": "ng/mL"}, {"measurement": "predicted I-1 [Plasma]", "setting": "[2]; Very Low dose group, 0.11 mg/kg bolus, 0.06 mg/kg/h", "value": 35, "unit": "ng/mL"}, {"measurement": "measured I-1 [Plasma]", "setting": "[2]; Very Low dose group, 0.11 mg/kg, 0.06 mg/kg/h, mean ± SEM of average over 22-hour infusion", "value": "32 ± 11", "unit": "ng/mL"}, {"measurement": "Measured I-1 [CSF]", "setting": "[2]; Very Low dose group, 0.11 mg/kg, 0.06 mg/kg/h, mean ± SEM", "value": "2.1 ± 0.4", "unit": "ng/mL"}, {"measurement": "average plasma and CSF concentrations relative to targets", "setting": "[2]; combined bolus/infusion regimen, all dose levels", "value": "≤ 2", "unit": "fold"}, {"measurement": "plasma/CSF ratio", "setting": "[2]; correlation of I-1 plasma and CSF concentrations, FIG. 5C", "value": "approximately 10"}, {"measurement": "physiological parameters versus vehicle-treated group", "setting": "[3]; baseline and during the study period", "value": "no clinically relevant differences"}, {"measurement": "MABP or heart rate", "setting": "[3]; systemic I-1 administration, tMCAO macaques", "value": "did not result in significant alterations"}, {"measurement": "free (unbound) fraction in plasma", "setting": "[4]", "value": 0.74}, {"measurement": "free (unbound) fraction in brain", "setting": "[5]; mouse brain tissue", "value": 0.13}, {"measurement": "fraction available to interact with the A3 receptor, versus Cl-IB-IMECA", "setting": "[5]; mouse models", "value": "at least 1000 fold"}]}]}
